Molecules are shown by their SMILES. Where “and” joins values, the source holds several entries; their conditions need not be identical. Equal values may be shown once.

Data set [1] deals with green coffee bean α-galactosidase A (GLA) (Coffea arabica, UniProt Q42656). Nature of the data set: α-galactosidase. The class given is biochemical.
The nature of the next data set: Cytotoxicity assay. The note with it: human, MMTV-βLa HeLa cells, EC50 (95% confidence interval), Cytotoxicity assay (ATP content).
Where [2] appears, read: HP D300 - with DMSO backfill, 384-well.
Setting [3] is: HP D300 - without DMSO backfill, 384-well.

green coffee bean α-galactosidase A (GLA), sequence (Q42656 16-378): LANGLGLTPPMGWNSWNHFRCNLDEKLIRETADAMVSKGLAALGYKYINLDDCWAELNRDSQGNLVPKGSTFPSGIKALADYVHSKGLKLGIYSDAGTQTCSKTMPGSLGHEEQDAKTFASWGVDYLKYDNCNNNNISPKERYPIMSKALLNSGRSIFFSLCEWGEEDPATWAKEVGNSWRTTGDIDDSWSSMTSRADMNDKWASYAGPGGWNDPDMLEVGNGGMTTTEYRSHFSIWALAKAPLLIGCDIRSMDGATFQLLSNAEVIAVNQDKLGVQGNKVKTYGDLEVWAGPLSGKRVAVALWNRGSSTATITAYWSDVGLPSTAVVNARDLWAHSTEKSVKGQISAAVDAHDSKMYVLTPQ

By EC50 is commonly meant the concentration at which the effect is half-maximal. A low value points to an effect from little substance. For the compound `Cc1c(OCC(F)(F)F)ccnc1C[S+]([O-])c1nc2ccccc2[nH]1` (centres unmarked) [Lansoprazole, lansoprazole], the EC50 in data set [1] (EC50 (95% confidence interval), α-galactosidase enzyme assay) is 12 µM and 11.5 µM and 8.95 µM.
As for `CC/C(=C(\c1ccccc1)c1ccc(OCCN(C)C)cc1)c1ccccc1` [Tamoxifen, tamoxifen], the EC50 at 72 hr in the data set “Cytotoxicity assay” (setting [2]) came to 8.77 µM; in “Cytotoxicity assay” (setting [3]) it was 9 µM; in “Cytotoxicity assay” (Pin tool – 1536-well) it was 32.1 µM.
Regarding `CC(=O)[O][Hg][c]1ccccc1` [PMA, phenylmercuric acetate], in data set [1] (versus previously published value, ref [4]), the “fold more potent in our assay than previously reported” value is reported as more than 50 fold.
Take `COc1cccc2c1C(=O)c1c(O)c3c(c(O)c1C2=O)C[C@@](O)(C(C)=O)C[C@@H]3O[C@H]1C[C@H](N)[C@H](O)[C@H](C)O1` [Daunorubicin]: the values for the concentration for a half-maximal effect (EC50) at 72 hr in “Cytotoxicity assay” (setting [2]), in “Cytotoxicity assay” (setting [3]) and in the data set “Cytotoxicity assay” (Pin tool – 1536-well) were 0.189 µM, 0.252 µM and 0.38 µM, respectively.

Values taken from publication PMC3985129 (Journal of laboratory automation, 2013).
